This note sets out measurements from patent US7592168B2, “Cephalosporin C acylase mutant and method for preparing 7-ACA using same” (Sandoz AG, priority 2003, dated 2009).

Residue numbers refer to the chain shown, from its start.

Common to all, as to format: biochemical
Test [1] has as its system Pseudomonas sp. SE83 CPC acylase AcyII fivefold mutant F169αY/M31βL/F58βM/H70βS/I176βV (mI176). Description: CPC hydrolysis kinetics (Lineweaver-Burk plot), fivefold mutant. Particulars: substrate CPC; fivefold mutant vs wild-type. The procedure: (§1) The enzyme activity of CPC acylase mutant to CPC was measured according to the method described by Park et al. with minor modifications as follows (Park, et al., Kor. J. Appl. Microbiol. Biotechnol. 23: 559-564, 1995). A substrate solution was prepared by dissolving CPC (purity 74.2%; CJ Corp., Korea) in 0.1 M Tris-HCl buffer solution (pH 8.0) at a concentration of 20 mg/ml and adjusting pH to 8 with 1 N NaOH. 20 μl of the CPC solution was mixed with 20 μl of the crude enzyme solution prepared above and the reaction mixture was incubated at 37° C. for 5 min. After the reaction, the mixture (200 μl) of 50 mM NaOH and 20% glacial acetic acid (1:2) was added thereto to stop the reaction. 200 μl of the supernatant recovered from the reaction mixture by centrifugation was mixed with 40 μl of 0.5% (w/v) PDAB (p-dimethylaminobenzaldehyde; Sigma, USA) dissolved in a methanol and the reaction mixture was incubated at 37° C. for 10 min. After the reaction, the absorbance of reaction mixture was measured at 415 nm and quantified by comparing with a calibration curve of standard material. At this time, 1 unit has been defined as the amount of enzyme capable to produce 1 μmole of 7-ACA from CPC per minute. Meanwhile, the specific activity of CPC acylase mutant for CPC was determined by measuring the amount of protein remaining in the enzyme solution according to the method described by Bradford (Bradford, M., Anal. Biochem. 72: 248-254, 1976) and representing it as an active unit corresponding to 1 mg of protein. The reactivity of CPC acylase mutant to CPC was determined by the following steps of adding the same amount of protein to a reaction mixture, performing an enzyme reaction for a fixed time, measuring the amount of 7-ACA produced in the reaction mixture, and representing it as a relative value. The end-product inhibition by 7-ACA was determined by adding a protein corresponding to the same active unit to a reaction mixture, performing an enzyme reaction for a fixed time; measuring the amount of 7-ACA produced in the reaction mixture, and representing it as a relative value.
(§2) E. coli MC1061 transformant containing the recombinant plasmid introduced with the wild-type or the inventive CPC acylase mutant gene was cultivated in 1 l of a terrific broth (1.2% Bacto-Trypton, 2.4% Yeast Extract, 0.4% glycerol, […]) containing […] of chloramphenicol at 30° C. for 16 hr to obtain a pre-culture solution. 10 ml of the pre-culture solution was inoculated into the same medium, and then, cultured at 25° C., 200 rpm for 48 hr with vigorous shaking. The culture solution was subjected to centrifugation at 4° C., 8,000 rpm for 10 min to separate a precipitate, and the precipitate washed twice with 20 mM Tris-HCl buffer solution (pH 8.0). […]

Test [2] addresses T1, Pseudomonas sp. SE83 CPC acylase AcyII fivefold mutant F169αY/M31βL/F58βM/H70βS/I176βV (mI176) (Pseudomonas sp., UniProt P15558, F170Y/F297M/H309S/I415V/M270L).
T1 construct: made in house; host or cells: E. coli MC1061
The description is as above. Particulars: substrate CPC; purified enzyme; 0.1 M Tris-HCl pH 8.0, 37° C.; Lineweaver-Burk plot. The procedure:
as §1, §2

For test [3], the target named is T2, Pseudomonas sp. SE83 CPC acylase AcyII, wild type, SEQ ID NO: 2 (alpha-subunit SEQ ID NO: 4, beta-subunit SEQ ID NO: 5) (Pseudomonas sp., UniProt P15558).
T2 construct: made in house; host or cells: E. coli MC1061
T2 sequence (P15558 2-230): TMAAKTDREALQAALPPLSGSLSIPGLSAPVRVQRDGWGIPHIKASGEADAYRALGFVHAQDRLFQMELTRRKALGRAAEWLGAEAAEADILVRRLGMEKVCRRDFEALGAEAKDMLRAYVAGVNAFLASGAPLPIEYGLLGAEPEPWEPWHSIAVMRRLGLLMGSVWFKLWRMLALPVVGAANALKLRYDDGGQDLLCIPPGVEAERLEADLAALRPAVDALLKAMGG
T2 sequence (P15558 240-774): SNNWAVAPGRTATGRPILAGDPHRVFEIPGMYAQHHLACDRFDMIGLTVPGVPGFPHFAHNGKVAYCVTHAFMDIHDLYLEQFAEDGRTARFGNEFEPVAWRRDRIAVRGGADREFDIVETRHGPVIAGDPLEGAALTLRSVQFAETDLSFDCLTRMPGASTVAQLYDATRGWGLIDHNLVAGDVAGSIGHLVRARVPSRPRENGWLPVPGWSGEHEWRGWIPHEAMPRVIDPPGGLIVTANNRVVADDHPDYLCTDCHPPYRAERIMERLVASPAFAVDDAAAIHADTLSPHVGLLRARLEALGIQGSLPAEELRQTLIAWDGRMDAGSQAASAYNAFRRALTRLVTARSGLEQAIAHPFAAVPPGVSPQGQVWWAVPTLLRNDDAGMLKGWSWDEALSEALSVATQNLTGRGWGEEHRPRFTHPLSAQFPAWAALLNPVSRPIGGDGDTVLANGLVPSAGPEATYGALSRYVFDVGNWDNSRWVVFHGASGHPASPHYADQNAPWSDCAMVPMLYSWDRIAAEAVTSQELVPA
Description: End-product inhibition by 7-ACA (inhibition constant), wild-type CPC acylase. Conditions: end-product inhibition of CPC conversion; pH 8.5. The procedure: as §1, with “At this time, 1 unit has been defined as the amount of enzyme capable to produce 1 μmole of 7-ACA from CPC per minute.” left out, “The reactivity of CPC acylase mutant to CPC was determined by the following steps of adding the same amount of protein to a reaction mixture, performing an enzyme reaction for a fixed time, measuring the amount of 7-ACA produced in the reaction mixture, and representing it as a relative value. The end-product inhibition by 7-ACA was determined by adding a protein corresponding to the same active unit to a reaction mixture, performing an enzyme reaction for a fixed time; measuring the amount of 7-ACA produced in the reaction mixture, and representing it as a relative value.” left out

In test [4] the target is T3, Pseudomonas sp. SE83 CPC acylase AcyII sixfold mutant S12, V121αA/G139αS/F58βN/I75βT/I176βV/S471βC (alpha-subunit SEQ ID NO: 7, beta-subunit SEQ ID NO: 8) (Pseudomonas sp., UniProt P15558, F297N/G140S/I314T/I415V/S710C/V122A).
T3 construct: made in house; host or cells: E. coli MC1061
T3 sequence (P15558 2-230 V122A/G140S): T2 sequence (P15558 2-230) with V121A, G139S
T3 sequence (P15558 240-774 F297N/I314T/I415V/S710C): T2 sequence (P15558 240-774) with F58N, I75T, I176V, S471C
As to the kind of experiment: End-product inhibition by 7-ACA (inhibition constant), S12 sixfold mutant. Particulars: end-product inhibition of CPC conversion; purified enzyme; pH 8.5. The method, then:
as §1, with “At this time, 1 unit has been defined as the amount of enzyme capable to produce 1 μmole of 7-ACA from CPC per minute.” left out, “The reactivity of CPC acylase mutant to CPC was determined by the following steps of adding the same amount of protein to a reaction mixture, performing an enzyme reaction for a fixed time, measuring the amount of 7-ACA produced in the reaction mixture, and representing it as a relative value. The end-product inhibition by 7-ACA was determined by adding a protein corresponding to the same active unit to a reaction mixture, performing an enzyme reaction for a fixed time; measuring the amount of 7-ACA produced in the reaction mixture, and representing it as a relative value.” left out

T1 sequence (P15558 240-774 M270L/F297M/H309S/I415V): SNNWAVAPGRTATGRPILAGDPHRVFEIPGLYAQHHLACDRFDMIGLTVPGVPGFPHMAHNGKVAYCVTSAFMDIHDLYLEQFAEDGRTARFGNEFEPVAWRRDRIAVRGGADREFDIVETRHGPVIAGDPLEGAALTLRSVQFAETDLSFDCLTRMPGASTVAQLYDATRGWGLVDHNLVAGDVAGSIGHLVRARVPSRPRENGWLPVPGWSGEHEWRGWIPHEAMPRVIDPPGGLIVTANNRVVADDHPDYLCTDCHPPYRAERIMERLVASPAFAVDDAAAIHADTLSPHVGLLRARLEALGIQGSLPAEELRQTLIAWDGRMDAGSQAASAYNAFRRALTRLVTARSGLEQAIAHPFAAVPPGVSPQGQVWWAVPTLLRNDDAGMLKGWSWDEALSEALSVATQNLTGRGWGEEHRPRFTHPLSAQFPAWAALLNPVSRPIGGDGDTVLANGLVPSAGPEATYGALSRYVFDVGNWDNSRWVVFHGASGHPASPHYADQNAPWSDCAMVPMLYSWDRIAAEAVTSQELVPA
T1 sequence (P15558 2-230 F170Y): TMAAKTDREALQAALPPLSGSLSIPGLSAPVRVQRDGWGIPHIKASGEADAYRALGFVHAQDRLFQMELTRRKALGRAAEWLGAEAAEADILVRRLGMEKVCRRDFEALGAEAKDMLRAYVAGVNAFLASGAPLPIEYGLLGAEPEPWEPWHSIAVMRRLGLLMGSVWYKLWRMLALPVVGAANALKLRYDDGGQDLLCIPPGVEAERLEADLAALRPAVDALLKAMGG

Regarding `CC(=O)OCC1=C(C(=O)O)N2C(=O)[C@@H](NC(=O)CCC[C@@H](N)C(=O)O)[C@H]2SC1` [CPC, Cephalosporin C], in test [1], the “higher reaction efficiency to CPC as compared with the wild-type enzyme” value was “about 15 fold” and the “lower Km value as compared with the wild-type enzyme” value is “about 6.3 fold”. In test [2], this compound had a Kcat of 2.4 s⁻¹ and a Kcat/Km of 300 M⁻¹ s⁻¹.

Consider `CC(=O)OCC1=C(C(=O)O)N2C(=O)[C@@H](N)[C@H]2SC1` [7-ACA, 7-aminoacephalosporanic acid], for which the Ki (usually a measure of affinity in units of concentration, obtained from inhibition or displacement) amounted to 400 µM in test [3] and 1900 µM in test [4].
